In PubChem BioAssay (NCI):
Where “and” joins values, the source holds several entries; their conditions need not be identical. Identical values can stand only once.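 Cells were grown in 96-well plates and exposed to each compound for 48 hours at five concentrations; endpoints were interpolated linearly between bracketing concentrations, or set to the highest concentration if not reached. GI50: concentration for 50% inhibition of growth. TGI is the concentration that stops growth completely.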

Experiments:
Experiment in all cases: NCI anticancer screen, dose series, 48 h
[1] = tested on: COLO 205 colon
[2] = tested on: HOP-92 NSCLC
[3] = tested on: NCI/ADR-RES ovarian
[4] = tested on: OVCAR-3 ovarian
[5] = tested on: PC-3 prostate
[6] = tested on: SF-268 CNS
[7] = tested on: T-47D breast
[8] = tested on: U251 CNS
[9] = tested on: UACC-62 melanoma
[10] = tested on: UO-31 renal

| Structure (SMILES) | GI50 [1] | TGI [1] | TGI [2] | GI50 [3] | TGI [3] | GI50 [4] | GI50 [5] | TGI [5] | GI50 [6] | TGI [6] | GI50 [7] | TGI [7] | GI50 [8] | TGI [8] | GI50 [9] | TGI [9] | GI50 [10] | TGI [10] | GI50 [2] | TGI [4] |
| --- | --- | --- | --- | --- | --- | --- | --- | --- | --- | --- | --- | --- | --- | --- | --- | --- | --- | --- | --- | --- |
| C#CC#CC#CC#CC#CC#CC#CC#CCC1OCC(COC(=O)O[C@@H](C(=O)O[C@H]2C[C@@]3(O)[C@@H](OC(=O)c4ccccc4)[C@@H]4[C@]5(OC(C)=O)CO[C@@H]5C[C@H](O)[C@@]4(C)C(=O)[C@H](OC(C)=O)C(=C2C)C3(C)C)[C@@H](NC(=O)c2ccccc2)c2ccccc2)O1 (stereo partly drawn) | 0.103 µM | > 26.8 µM | > 33.3 µM | > 33.3 µM | > 33.3 µM | 0.0971 µM | 0.268 µM | > 33.3 µM | 0.379 µM | > 33.3 µM | 0.205 µM | > 33.3 µM | 0.162 µM | > 33.3 µM | 0.511 µM | > 33.3 µM | > 33.3 µM | > 33.3 µM | – | – |
| Cc1cccc(/C=N/NC(=S)N2CCCC2)n1 | 0.193 µM | – | – | 0.319 µM | 6.93 µM and 4.89 µM | 0.28 µM | 0.581 µM | – | 2.29 µM | – | 0.267 µM | 7.68 µM | 0.821 µM | > 100 µM | 0.587 µM | 2.8 µM and 1 µM | 0.748 µM | 4.19 µM | 0.536 µM | 0.843 µM and 0.0848 µM |
| O=C1/C(=C/c2ccccc2)CN(C(=O)CCN2CCOCC2)C/C1=C\c1ccccc1 | – | 7.67 µM | 22.2 µM | – | 9.46 µM | – | – | 8.51 µM | – | 8.73 µM | – | 7.35 µM | – | 3.52 µM | – | 3.52 µM | – | 19.2 µM | – | 11.5 µM |
| COc1cc(C(=O)c2c(-c3ccccc3)oc3c(OC)cccc23)cc(OC)c1OC | 0.123 µM | 0.485 µM | 21.5 µM | 0.0409 µM | – | 0.0346 µM | 0.0557 µM | > 100 µM | 0.128 µM | > 100 µM | 31.8 µM | > 100 µM | 0.0514 µM | > 100 µM | 0.0522 µM | > 96.5 µM | 0.119 µM | > 100 µM | 0.108 µM | 0.363 µM |
| O=C1c2cc3c(cc2[C@@H]2[C@H]1c1ccc([N+](=O)[O-])cc1C(=O)N2CCCBr)OCO3 | < 0.01 µM | > 100 µM | < 0.01 µM | < 0.01 µM | 0.0177 µM | < 0.037 µM | < 0.01 µM | 0.184 µM | < 0.01 µM | 0.394 µM | < 0.01 µM | > 100 µM | < 0.01 µM | – | < 0.01 µM | < 0.01 µM | < 0.01 µM | > 100 µM | < 0.01 µM | – |
| COc1cc2c(cc1OC)[C@H](C)N1CCc3cc(OC)c(OC)cc3[C@@H]1C2 | – | > 100 µM | > 100 µM | – | > 100 µM | – | – | > 100 µM | – | > 100 µM | – | > 100 µM | – | > 100 µM | – | > 100 µM | – | > 100 µM | – | > 100 µM |
| CC(C)(C)C(=O)OCC1C(=O)OCC1C(=O)N1Cc2cc3ccccc3nc2C1 (stereo not drawn) | – | 2.41 µM | 3.69 µM | – | 18.9 µM | – | – | 23 µM | – | 24.7 µM | – | 7.63 µM | – | 20.6 µM | – | 15.7 µM | – | 7.99 µM | – | 11.8 µM |
| CC1=C(c2cccc(O)c2)[C@H](c2ccc(OCCN3CC(CF)C3)cc2)Oc2ccc(O)cc21 | 6.34 µM | 23.1 µM | 13.8 µM | 15 µM | 31 µM | 10.8 µM | 5.8 µM | 20.9 µM | 6.28 µM | 21.6 µM | 0.0747 µM | 19.9 µM | 4.19 µM | 18.1 µM | 10.4 µM | 22.6 µM | 3.56 µM | 16 µM | 2.52 µM | 24.4 µM |
| N#C/C(=C\c1ccsc1)c1nc2ccccc2o1 | 39 µM | > 100 µM | 42.8 µM | > 100 µM | > 100 µM | 85.1 µM | > 100 µM | > 100 µM | 38 µM | > 100 µM | 44.7 µM | > 100 µM | 37.2 µM | > 100 µM | 61.6 µM | > 100 µM | 46.4 µM | > 100 µM | 14.4 µM | > 100 µM |
| NC(=O)N/N=C1/CCC(O)CC1CC(=O)O (stereo not drawn) | – | > 100 µM | > 100 µM | – | > 100 µM | – | – | > 100 µM | – | > 100 µM | – | > 100 µM | – | > 100 µM | – | > 100 µM | – | > 100 µM | – | > 100 µM |
| Cc1cc2c(C(C)C)c(O)c(O)cc2c(O)c1-c1c(C)cc2c(C(C)C)c(O)c(O)cc2c1O | 3.84 µM | 15 µM | 17.4 µM | 20.7 µM | 48.9 µM | 14.4 µM | 12.4 µM | 27.7 µM | 12 µM | 34.6 µM | 19.1 µM | 45.7 µM | 4.16 µM | 14.5 µM | 2.32 µM | 14.3 µM | 14.9 µM | 29.1 µM | 3.13 µM | 29.8 µM |
| COc1ccc2c(c1)NC1=C(C(=O)OC1)C2c1cc(OC)c2c(c1)OCO2 (stereo not drawn) | < 0.0135 µM | 0.0305 µM | > 87.9 µM | < 0.0165 µM | – | < 0.0149 µM | 0.028 µM | > 100 µM | < 0.021 µM | > 100 µM | > 100 µM | > 100 µM | 0.0236 µM | > 100 µM | < 0.0156 µM | > 100 µM | – | > 100 µM | 1.36 µM | 0.0241 µM |
| O=C(C/C(=N/O)C(=O)NC1=C(Cl)C(=O)c2ccccc2C1=O)CC(c1ccccc1)c1c(O)c2ccccc2oc1=O (stereo not drawn) | – | 33.7 µM | > 100 µM | – | > 100 µM | – | – | > 100 µM | – | 42.5 µM | – | 38.1 µM | – | > 100 µM | – | > 100 µM | – | 44.5 µM | – | 15.2 µM |
| C=C1C(O)C2C(=C(CC)C13CC3)C(=O)C(C)(C)C2OC (stereo not drawn) | > 100 µM | > 100 µM | > 100 µM | 92.7 µM | > 100 µM | 40.3 µM | 35.2 µM | > 100 µM | > 100 µM | > 100 µM | > 100 µM | > 100 µM | 48.4 µM | > 100 µM | 84.9 µM | > 100 µM | 81.5 µM | > 100 µM | 48.4 µM | > 100 µM |
| O=c1cnn(C2OC(CO)C(O)C2O)c(=S)[nH]1 (stereo not drawn) | – | > 100 µM | > 100 µM | – | > 100 µM | – | – | > 100 µM | – | > 100 µM | – | > 100 µM | – | > 100 µM | – | > 100 µM | – | > 100 µM | – | > 100 µM |
| Cn1ncnc1[C@H]1c2n[nH]c(=O)c3cc(F)cc(c23)N[C@@H]1c1ccc(F)cc1 | > 100 µM | > 100 µM | > 100 µM | > 100 µM | > 100 µM | > 100 µM | > 100 µM | > 100 µM | 3.07 µM | > 100 µM | > 100 µM | > 100 µM | 1.65 µM | > 100 µM | > 100 µM | > 100 µM | 6.5 µM | > 100 µM | – | > 100 µM |
| Cc1ccc(S(=O)(=O)c2c(COC(=O)c3cccc(C)c3)c(-c3ccccc3)nn2C)cc1 | > 100 µM | > 100 µM | > 100 µM | > 100 µM | > 100 µM | > 100 µM | > 100 µM | > 100 µM | > 100 µM | > 100 µM | 8.53 µM | > 100 µM | > 100 µM | > 100 µM | 8.41 µM | > 100 µM | > 100 µM | > 100 µM | > 100 µM | > 100 µM |
| C/C(O)=C(/C=N/C(=S)Nc1ccc(S(N)(=O)=O)cc1)C(=O)Nc1ccccc1C | – | > 100 µM | > 100 µM | – | > 100 µM | – | – | > 100 µM | – | > 100 µM | – | > 100 µM | – | > 100 µM | – | > 100 µM | – | > 100 µM | – | > 100 µM |
| O=C1C(Nc2ccc(Cl)cc2)=C(I)C(=O)c2ncccc21 | 1.32 µM | 2.79 µM | 2.9 µM | 2.01 µM | 5.37 µM | 0.247 µM | 1.12 µM | 2.6 µM | 1.37 µM | 3.23 µM | 1 µM | 3.54 µM | 1.48 µM | 2.8 µM | 1.33 µM | 3.12 µM | 0.473 µM | 1.74 µM | 1.43 µM | 1.03 µM |
| O=C(Nc1cccc(-n2cc(-c3ccncc3)c(-c3ccc(Cl)c(O)c3)n2)c1)Nc1cc(C(F)(F)F)cc(C(F)(F)F)c1 | 0.896 µM | 1.71 µM | 1.15 µM | 1.23 µM | 5.67 µM | 0.345 µM | 0.261 µM | 2.24 µM | 0.846 µM | 2.29 µM | 1.55 µM | 8.93 µM | 0.484 µM | 1.15 µM | 0.766 µM | 1.96 µM | 0.676 µM | 1.77 µM | 0.196 µM | 1.11 µM |
| CSC1=C(N)C(=O)c2[nH]cc(CO)c2C1=N | 0.0755 µM | 0.222 µM | 2.3 µM | 0.239 µM | 0.781 µM | 0.134 µM | 0.212 µM | 0.916 µM | 0.246 µM | 0.873 µM | 0.264 µM | 0.644 µM | 0.181 µM | 0.347 µM | 0.159 µM | 0.314 µM | 0.154 µM | 0.295 µM | 0.499 µM | 0.346 µM |
